For one data set, the target named is T1, human Orexin 1 receptor (Homo sapiens, UniProt O43613).
T1 construct: CHO-K1 cells stably expressing the full-length human Orexin 1 receptor and the aequorin photoprotein; expressed in transfected cells; host or cells: CHO-K1 (CHO-K1/hOx1)
T1 sequence (O43613 1-425): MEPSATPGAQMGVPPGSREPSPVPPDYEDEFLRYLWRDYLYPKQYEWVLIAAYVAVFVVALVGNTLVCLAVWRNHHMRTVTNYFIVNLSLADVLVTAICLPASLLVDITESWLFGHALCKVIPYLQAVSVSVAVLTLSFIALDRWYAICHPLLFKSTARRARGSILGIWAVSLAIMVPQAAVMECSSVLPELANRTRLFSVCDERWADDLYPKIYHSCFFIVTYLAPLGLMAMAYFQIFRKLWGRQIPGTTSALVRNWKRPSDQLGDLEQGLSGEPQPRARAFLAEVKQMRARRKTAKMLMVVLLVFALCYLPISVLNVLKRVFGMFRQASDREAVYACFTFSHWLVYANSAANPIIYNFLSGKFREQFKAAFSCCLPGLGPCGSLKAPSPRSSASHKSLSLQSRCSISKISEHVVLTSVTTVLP
Nature of the data set: Assay A: in vitro testing of OX1R potency, OX1R IP1. The format is cell-based. The settings on record: Table 4a; 50 nM Orexin A.

In another data set the target is T2, human orexin 2 receptor (Homo sapiens, UniProt O43614).
T2 construct: CHO-K1 cells stably expressing the full-length human orexin 2 receptor and the aequorin photoprotein; expressed in transfected cells; host or cells: CHO-K1 (CHO-K1/hOx2)
T2 sequence (O43614 1-444): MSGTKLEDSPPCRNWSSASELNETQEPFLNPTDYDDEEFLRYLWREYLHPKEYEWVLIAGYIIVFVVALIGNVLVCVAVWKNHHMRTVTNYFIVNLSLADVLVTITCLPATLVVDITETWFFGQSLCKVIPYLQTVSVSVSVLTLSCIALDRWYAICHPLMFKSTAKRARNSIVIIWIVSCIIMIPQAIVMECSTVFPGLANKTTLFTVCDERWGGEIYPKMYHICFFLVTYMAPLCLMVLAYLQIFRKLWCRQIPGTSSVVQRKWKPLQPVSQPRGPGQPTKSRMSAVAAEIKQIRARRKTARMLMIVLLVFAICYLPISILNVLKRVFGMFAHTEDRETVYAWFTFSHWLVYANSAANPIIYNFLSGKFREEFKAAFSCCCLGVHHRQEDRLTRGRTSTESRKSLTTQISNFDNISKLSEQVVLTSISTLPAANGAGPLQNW
Nature of the data set: Assay B: in vitro testing of OX2R potency, OX2R IP1. The format is cell-based. The settings on record: Table 4a; 0.5 nM Orexin A. The source says:
Activation of the orexin receptors expressed in cell lines results in an increase in intracellular IP3 concentration. IP1, a downstream metabolite of IP3, accumulates in cells following receptor activation and is stable in the presence of LiCl. Using Homogeneous Time-Resolved Fluorescence technology with Lumi4-Tb cryptate (commercially available from Cisbio Bioassay) and a suitable fluorescence plate reader. […] Chem. Genomics 2009, 3, 22-32. This technique is used to characterize pharmacological modification of the orexin receptors.
B. In Vitro Testing of OX2R Potency: OX2R IP1
IP1 measurements are performed in CHO-K1 cells stably expressing the full-length human orexin 2 receptor and the aequorin photoprotein. Cells are cultivated in Ham's nutrient mixture F12 medium with 10% fetal calf serum, in a 37° C., 95% humidity and 5% CO2 incubator. The CHO-K1/hOx2 cell mass is expanded to larger cell numbers. The cells are obtained as frozen cells in cryo-vials and stored until use at −150° C. The viability of the cells after thawing is >90%. In preparation for the assay, 24 hours before the assay, the cells are thawed at 37° C. and immediately diluted with cell culture medium. After centrifugation, the cell pellet is re-suspended in medium and then distributed into the assay plates with a density of 5000 cells/25 μL per well. The plates are incubated for one hour at room temperature to reduce edge effects before they are incubated for 24 hours at 37° C./5% CO2. Compounds are prepared by a 8-point serial dilution in DMSO and a final dilution step into assay buffer (HBSS with 20 mM HEPES, 0.1% BSA and 50 mM LiCl, pH 7.4) to ensure a final DMSO concentration of 1% in the assay. On the day of the assay, cells in the plate are washed twice with 60 μL assay buffer (20 μL buffer remained in the wells after washing), followed by adding 5 μL per well of compounds diluted in assay buffer. After 15 minutes of incubation at room temperature 5 μL per well of Orexin A peptide (final concentration: 0.5 nM) dissolved in assay buffer is added to the assay plate. The assay plate is incubated for 60 minutes at 37° C. Then 5 μL per well of Anti-IP1-Cryptate Tb solution and 5 μL per well of IP1-d2 dilution are added to all well of the plate and the plate is incubated for a further 60 minutes light protected at room temperature. The emission at 615 nm and 665 nm (Excitation wavelength: 320 nm) are measured using an EnVision reader (PerkinElmer). The ratio between the emission at 665 nm and 615 is calculated by the reader.
8-point four parametric non-linear curve fitting and determination of IC50 values and Hill slopes is performed using a regular analysis software e.g. AssayExplorer (Accelrys). In order to establish an agonist concentration independent parameter, Kb values are calculated using the following equation: IC50/((2+(A/EC50)^n)^1/n−1) (with A=concentration agonist, EC50=EC50 agonist, n=Hill slope agonist) (see P. Leff, I. G. Dougall, Trends Pharmacol. Sci. 1993, 14(4), 110-112).
Kb values from Assay A (OX1R) and Assay B (OX2R) can then provide a selectivity ratio which is independent of the agonist (Orexin A) concentration.

Another data set concerns the target T3, human MDR1 P-gp (Homo sapiens, UniProt P08183).
T3 construct: expressed in transfected cells; host or cells: MDCK (MDCK-MDR1)
Briefly: Assay C: efflux in MDCK cells transfected with the human MDR1 gene. The format is in vitro ADME. The settings on record: MDCK-MDR1 cell monolayers, pH 7.4, 37° C., read-out: MDCK efflux ratio (BA/AB). As to the method:
C. Assessment of Efflux in Madin-Darby Canine Kidney (MDCK) Cells Transfected with the Human MDR1 Gene
Apparent permeability coefficients (PE) of the compounds across the MDCK-MDR1 cell monolayers are measured (pH 7.4, 37° C.) in apical-to-basal (AB) and basal-to-apical (BA) transport direction. AB permeability (PEAB) represents drug absorption from the blood into the brain and BA permeability (PEBA) drug efflux from the brain back into the blood via both passive permeability as well as active transport mechanisms mediated by efflux and uptake transporters that are expressed on the MDCK-MDR1 cells, predominantly by the overexpressed human MDR1 P-gp. The compounds are assigned to permeability/absorption classes by comparison of the AB permeabilities with the AB permeabilities of reference compounds with known in vitro permeability and oral absorption in the human. Identical or similar permeabilities in both transport directions indicate passive permeation, vectorial permeability points to additional active transport mechanisms. Higher PEBA than PEAB indicates the involvement of active efflux mediated by MDR1 P-gp. Active transport is concentration-dependently saturable.
MDCK-MDR1 cells (1-2×10e5 cells/1 cm2 area) are seeded on filter inserts (Costar transwell polycarbonate or PET filters, 0.4 μm pore size) and cultured (DMEM) for 7 days. Subsequently, the MDR1 expression is boosted by culturing the cells with 5 mM sodium butyrate in full medium for 2 days. Compounds are dissolved in appropriate solvent (like DMSO, 1-20 mM stock solutions). Stock solutions are diluted with HTP-4 buffer (128.13 mM NaCl, 5.36 mM KCl, 1 mM MgSO4, 1.8 mM CaCl2, 4.17 mM NaHCO3, 1.19 mM Na2HPO4×7H2O, 0.41 mM NaH2PO4—H2O, 15 mM HEPES, 20 mM glucose, 0.25% BSA, pH 7.4) to prepare the transport solutions (0.1-300 μM compound, final DMSO<=0.5%). The transport solution (TL) is applied to the apical or basolateral donor side for measuring A-B or B-A permeability (3 filter replicates), respectively. The receiver side contains the same buffer as the donor side. Samples are collected at the start and end of experiment from the donor and at various time intervals for up to 2 hours also from the receiver side for concentration measurement by H PLC-MS/MS or scintillation counting. Sampled receiver volumes are replaced with fresh receiver solution.

The nature of data set [1]: Assay D: assessment of log P. The format is physicochemical. As to the method: The assay was performed following the description by S. F. Donovan and M. C. Pescatore in J. Chromatogr. A 952 (2002) 47-61.
In a further data set the target is T4, OX2R (Homo sapiens, UniProt O43614).
T4 sequence (O43614 1-444): T2 sequence (O43614 1-444)
Briefly: OX2R assay of WO2016/034882, Table 3 (Method B). The settings on record: read-out: OX2R IC50 (corresponds to pIC50) (converted).

Another data set concerns the target T5, OX1R (Homo sapiens, UniProt O43613).
T5 sequence (O43613 1-425): T1 sequence (O43613 1-425)
Briefly: OX1R assay of WO2016/034882, Table 3 (Method B). Conditions: read-out: OX1R IC50 (corresponds to pIC50) (converted).

T3 sequence (P08183 whole entry): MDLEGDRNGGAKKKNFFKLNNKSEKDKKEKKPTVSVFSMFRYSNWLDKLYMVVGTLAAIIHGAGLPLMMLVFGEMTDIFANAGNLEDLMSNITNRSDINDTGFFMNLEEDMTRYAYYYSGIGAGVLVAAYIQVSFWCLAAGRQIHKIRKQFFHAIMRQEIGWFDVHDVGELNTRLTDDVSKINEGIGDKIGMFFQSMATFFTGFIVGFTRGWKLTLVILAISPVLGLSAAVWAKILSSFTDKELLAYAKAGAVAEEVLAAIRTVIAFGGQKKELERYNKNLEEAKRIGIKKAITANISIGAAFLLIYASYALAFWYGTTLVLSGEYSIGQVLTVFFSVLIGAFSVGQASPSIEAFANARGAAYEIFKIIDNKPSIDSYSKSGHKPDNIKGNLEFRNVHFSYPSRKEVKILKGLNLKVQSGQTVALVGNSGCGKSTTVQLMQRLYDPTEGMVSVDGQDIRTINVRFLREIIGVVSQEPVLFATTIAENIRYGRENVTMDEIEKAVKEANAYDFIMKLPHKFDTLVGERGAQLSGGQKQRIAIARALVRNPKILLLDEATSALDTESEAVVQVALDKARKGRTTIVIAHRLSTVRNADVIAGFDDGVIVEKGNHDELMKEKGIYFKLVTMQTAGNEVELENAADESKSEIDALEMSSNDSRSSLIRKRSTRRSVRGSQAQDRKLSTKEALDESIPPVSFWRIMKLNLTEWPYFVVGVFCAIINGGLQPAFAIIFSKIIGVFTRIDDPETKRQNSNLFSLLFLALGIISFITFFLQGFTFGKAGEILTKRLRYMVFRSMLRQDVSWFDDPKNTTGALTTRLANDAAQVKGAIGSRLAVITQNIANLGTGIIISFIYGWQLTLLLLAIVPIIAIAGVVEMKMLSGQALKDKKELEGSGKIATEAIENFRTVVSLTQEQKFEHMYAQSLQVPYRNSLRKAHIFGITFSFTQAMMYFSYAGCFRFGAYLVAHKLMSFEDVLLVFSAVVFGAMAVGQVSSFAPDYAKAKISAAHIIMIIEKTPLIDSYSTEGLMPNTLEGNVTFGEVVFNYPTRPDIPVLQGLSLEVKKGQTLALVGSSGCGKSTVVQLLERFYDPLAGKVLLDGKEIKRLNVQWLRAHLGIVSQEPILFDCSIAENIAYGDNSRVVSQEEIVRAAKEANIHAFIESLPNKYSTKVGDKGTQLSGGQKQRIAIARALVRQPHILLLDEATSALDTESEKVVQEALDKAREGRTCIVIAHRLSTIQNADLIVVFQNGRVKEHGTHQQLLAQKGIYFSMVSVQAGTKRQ

For the compound `CCN(C(=O)c1nc(C)sc1-c1ccccc1)[C@@H](C)CNc1ncc(C(F)(F)F)cn1` [Example 6], the figures for the Kb on human Orexin 1 receptor and at human orexin 2 receptor were 0.013 nM and 7.03 nM, respectively. Further, the efflux ratio at human MDR1 P-gp was under 3. Also, the chromatographic logP in data set [1] fell in the range of 2 to 4.

Consider `CCN(C(=O)c1ccc(Cl)cc1-n1nccn1)[C@@H](C)CNc1ncc(C(F)(F)F)cn1` [Example 7], for which the results for the Kb at human Orexin 1 receptor and at human orexin 2 receptor were 0.025 nM and 23.2 nM, respectively. The efflux ratio on human MDR1 P-gp is under 3. Besides, the chromatographic logP in data set [1] is 2 to 4.

In the case of `CCN(C(=O)c1nc(C)sc1-c1ccc(F)cc1)[C@@H](C)CNc1ncc(C(F)(F)F)cn1` [Example 8], the Kb at human Orexin 1 receptor turned out to be 0.022 nM; on human orexin 2 receptor it was 7.92 nM. The efflux ratio at human MDR1 P-gp was under 3. The compound also registered a chromatographic logP in data set [1] of 2 to 4.

For `CCN(C(=O)c1cccc(F)c1-n1nccn1)[C@@H](C)CNc1ccc(C(F)(F)F)cn1` [Example 15], the Kb at human Orexin 1 receptor came out at 0.0044 nM; at human orexin 2 receptor, 3.86 nM. The efflux ratio at human MDR1 P-gp was under 3. Also, the chromatographic logP in data set [1] is 2 to 4.

On to `CCN(C(=O)c1cccc(F)c1-n1nccn1)[C@@H](C)CNc1ncc(C(F)(F)F)cc1F` [Example 16], for which the figures for the Kb on human Orexin 1 receptor and on human orexin 2 receptor were 0.014 nM and 7.6 nM, respectively. Also, the efflux ratio at human MDR1 P-gp was under 3. Moreover, in data set [1], the chromatographic logP lay within 2 to 4.

`CCN(C(=O)c1nccc(C(F)(F)F)c1-c1ccn(C)n1)[C@@H](C)COc1ccc(C(F)(F)F)cn1` [Example 19]: the figures for the Kb on human Orexin 1 receptor and at human orexin 2 receptor were 0.114 nM and 26.2 nM, respectively. On human MDR1 P-gp, the efflux ratio is under 3. In addition, the chromatographic logP in data set [1] is 2 to 4.

Regarding `CCN(C(=O)c1ccc(OC)cc1-n1nccn1)[C@@H](C)CNc1ncc(C(F)(F)F)cn1` [Example 20], the Kb at human Orexin 1 receptor was 0.091 nM; on human orexin 2 receptor it was 115 nM. Also, the efflux ratio at human MDR1 P-gp is under 3. Moreover, the chromatographic logP in data set [1] is 2 to 4.

On to `CC[C@@H](CNc1ccc(C(F)(F)F)cn1)N(CC)C(=O)c1nc(C)ccc1-n1nccn1` [drawing 9], for which the IC50 at OX2R is 320 nM.

`CC[C@@H](CNc1ncc(C(F)(F)F)cn1)N(C)C(=O)c1nc(C)ccc1-c1ncccn1` [drawing 11]: the IC50 on OX1R was 1.9 nM.

As to `CC[C@@H](CNc1ncc(C(F)(F)F)cn1)N(C)C(=O)c1c(F)cccc1-n1nccn1` [drawing 12], the IC50 on OX2R is at least 7950 nM.

A word on the chromatographic logP: it is lipophilicity estimated from chromatographic retention. By IC50 is commonly meant the point on the concentration scale where inhibition reaches its midpoint.

(Values after patent publication US10710984B2, “N-[(Pyrimidinylamino)propanyl]-and N-[(Pyridinylamino)-propanyl]arylcarboxamides” (Boehringer Ingelheim International GmbH, priority 2016, dated 2020).)
